Blank lines part the entries; values can stand above or below the molecule they belong to. Active and inactive are the calls of the source. No cut-off for these calls is given here.
How the values were obtained:
[1] = species on record: Rattus norvegicus; assay: Metabolic stability in rat assessed as glucuronidation; type: ADME, organism-based; conditions: in vitro
[2] = target: T1, Polyunsaturated fatty acid lipoxygenase ALOX15 (Homo sapiens, UniProt P16050)
T1 sequence (P16050 whole entry): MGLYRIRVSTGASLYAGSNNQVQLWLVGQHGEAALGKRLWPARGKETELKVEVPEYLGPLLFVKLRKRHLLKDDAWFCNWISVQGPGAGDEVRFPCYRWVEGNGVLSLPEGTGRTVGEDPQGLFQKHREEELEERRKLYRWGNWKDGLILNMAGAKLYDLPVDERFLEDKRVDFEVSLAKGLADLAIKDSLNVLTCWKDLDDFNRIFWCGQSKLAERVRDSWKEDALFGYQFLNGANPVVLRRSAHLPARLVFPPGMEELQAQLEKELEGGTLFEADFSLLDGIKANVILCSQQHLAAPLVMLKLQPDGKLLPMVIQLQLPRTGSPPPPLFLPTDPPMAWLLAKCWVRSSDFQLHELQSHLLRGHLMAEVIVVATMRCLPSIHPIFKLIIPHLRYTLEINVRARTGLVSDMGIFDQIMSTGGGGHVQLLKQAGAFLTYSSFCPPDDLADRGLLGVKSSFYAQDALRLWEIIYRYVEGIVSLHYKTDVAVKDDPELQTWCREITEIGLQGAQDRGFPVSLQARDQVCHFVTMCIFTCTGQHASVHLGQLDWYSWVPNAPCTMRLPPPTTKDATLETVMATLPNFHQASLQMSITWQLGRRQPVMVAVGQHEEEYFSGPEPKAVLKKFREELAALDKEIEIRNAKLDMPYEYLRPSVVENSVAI

[3] = target: T2, Polyunsaturated fatty acid lipoxygenase ALOX12 (Homo sapiens, UniProt P18054)
T2 sequence (P18054 whole entry): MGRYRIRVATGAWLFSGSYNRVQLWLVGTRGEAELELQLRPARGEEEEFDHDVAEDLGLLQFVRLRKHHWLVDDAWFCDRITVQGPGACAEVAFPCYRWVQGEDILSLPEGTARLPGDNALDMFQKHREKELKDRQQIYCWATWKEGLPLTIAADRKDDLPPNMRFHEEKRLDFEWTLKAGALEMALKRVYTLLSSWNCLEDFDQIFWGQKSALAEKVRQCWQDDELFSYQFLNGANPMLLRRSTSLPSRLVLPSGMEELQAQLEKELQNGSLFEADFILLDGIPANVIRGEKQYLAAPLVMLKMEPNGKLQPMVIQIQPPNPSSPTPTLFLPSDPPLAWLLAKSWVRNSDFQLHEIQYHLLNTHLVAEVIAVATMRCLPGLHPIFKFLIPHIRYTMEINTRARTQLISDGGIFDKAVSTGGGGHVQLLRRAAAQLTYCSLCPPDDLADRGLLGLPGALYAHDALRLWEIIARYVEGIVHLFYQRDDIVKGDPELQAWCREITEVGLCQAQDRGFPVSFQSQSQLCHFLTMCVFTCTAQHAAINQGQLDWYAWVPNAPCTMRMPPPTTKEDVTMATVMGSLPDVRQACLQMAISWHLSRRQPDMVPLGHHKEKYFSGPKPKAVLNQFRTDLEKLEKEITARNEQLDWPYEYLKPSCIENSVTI

[4] = target: Cyclooxygenase (Homo sapiens) (UniProt P35354+P23219); assay: Inhibition of COX1/COX2 (unknown origin) using arachidonic acid as substrate assessed as consumption of oxygen preincubated for 5 mins followed by substrate addition at 15 uM; type: protein assay
[5] = system: Mus musculus; assay: AUC (infinity) in CD-1 mouse at 30 mg/kg, po; type: ADME, organism-based, Plasma; parameters: time infinity, dose 30 mg/kg, route oral; conditions: in vivo
[6] = system: Mus musculus; assay: Cmax in CD-1 mouse at 30 mg/kg, po; type: ADME, organism-based; parameters: dose 30 mg/kg, route oral; conditions: in vivo
[7] = system: Mus musculus; assay: Volume of distribution in CD-1 mouse at 3 mg/kg, iv; type: ADME, organism-based; parameters: dose 3 mg/kg, route intravenous; conditions: in vivo
[8] = system: Mus musculus; assay: AUC (infinity) in CD-1 mouse at 3 mg/kg, iv; type: ADME, organism-based, Plasma; parameters: dose 3 mg/kg, route intravenous, time infinity; conditions: in vivo
[9] = system: Mus musculus; assay: Cmax in CD-1 mouse at 3 mg/kg, iv; type: ADME, organism-based; parameters: dose 3 mg/kg, route intravenous; conditions: in vivo
[10] = Aqueous solubility of the compound in PBS buffer at pH 7.4 by chemiluminescent nitrogen detection method; type: physicochemical
[11] = Stability of the compound in presence of glutathione; type: ADME
[12] = Stability of the compound in aqueous buffer at pH 2 to 9; type: physicochemical
[13] = Stability of the compound in HEPES buffer at pH 7.3; type: physicochemical
[14] = Metabolic stability in mouse liver microsomes measured over 1 hr in absence of NADPH; type: ADME, Microsome
[15] = system: Liver microsome; assay: Metabolic stability in rat liver microsomes measured over 1 hr in absence of NADPH; type: ADME
[16] = Aqueous solubility of the compound in PBS buffer at pH 7.4 by LC-UV spectroscopic analysis; type: physicochemical
[17] = target: T3, Polyunsaturated fatty acid lipoxygenase ALOX12 (Mus musculus) (UniProt P39655); assay: Inhibition of 12-LOX in mouse BTC3 cells assessed as inhibition of arachidonic acid/calcium ionophore-induced 12-HETE production after 4 hrs by ELISA; type: cell-based
T3 sequence (whole entry): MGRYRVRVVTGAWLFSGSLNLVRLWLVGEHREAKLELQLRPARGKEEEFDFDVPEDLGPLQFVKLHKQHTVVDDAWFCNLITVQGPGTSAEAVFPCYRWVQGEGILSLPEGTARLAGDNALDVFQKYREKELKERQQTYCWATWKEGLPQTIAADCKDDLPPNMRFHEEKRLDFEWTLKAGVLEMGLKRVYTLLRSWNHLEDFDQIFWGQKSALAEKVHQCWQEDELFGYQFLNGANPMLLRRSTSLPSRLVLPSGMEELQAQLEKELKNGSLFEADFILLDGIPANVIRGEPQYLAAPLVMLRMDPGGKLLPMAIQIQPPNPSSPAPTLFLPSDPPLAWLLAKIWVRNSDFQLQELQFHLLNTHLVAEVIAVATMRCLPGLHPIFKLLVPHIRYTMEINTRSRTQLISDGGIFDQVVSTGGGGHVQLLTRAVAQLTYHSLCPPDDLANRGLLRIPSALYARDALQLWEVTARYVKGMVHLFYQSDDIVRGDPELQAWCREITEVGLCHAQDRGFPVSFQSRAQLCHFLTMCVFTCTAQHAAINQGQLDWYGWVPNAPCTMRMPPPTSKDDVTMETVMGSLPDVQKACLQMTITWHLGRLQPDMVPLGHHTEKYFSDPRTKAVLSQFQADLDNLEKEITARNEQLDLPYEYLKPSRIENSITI

[18] = Stability of the compound in PBS buffer at pH 7.4 measured at 48 hrs; type: physicochemical; conditions: read-out: Stability
[19] = Metabolic stability in mouse plasma assessed as compound remaining measured at 2 hrs; type: ADME, cell-free; conditions: read-out: Stability

Structure (SMILES): O=S(=O)(Nc1nc2ccccc2s1)c1ccc(NCc2cccc(Cl)c2O)cc1
Stability [1]: Unstable | IC50 [2]: 1.3 µM

Structure (SMILES): Nc1ccccc1CNc1ccc(S(=O)(=O)Nc2nccs2)cc1
IC50 [3]: > 40 µM

inhibition [4]: inactive
Structure (SMILES): COc1cccc(CNc2ccc(S(=O)(=O)Nc3nc4ccccc4[nH]3)cc2)c1O

Structure (SMILES): O=S(=O)(Nc1nccs1)c1ccc(NCc2ccccc2)cc1
IC50 [3]: > 40 µM

Structure (SMILES): COc1cccc(CNc2ccc(S(=O)(=O)Nc3nc4ccccc4s3)cc2)c1O [VLX-1005]
AUC [5]: 67 µM·h | Cmax [6]: 38 µM | Vd [7]: 0.55 L/kg | AUC [8]: 34 µM·h | Cmax [9]: 112 µM | solubility [10]: soluble | Stability [11]: Stable | Stability [12]: Stable | Stability [13]: Stable | Stability [14]: Stable | Stability [15]: Stable | inhibition [4]: inactive | solubility [16]: < 5 µg/mL

Structure (SMILES): O=S(=O)(Nc1nccs1)c1ccc(NCc2cccc(O)c2)cc1
IC50 [3]: > 40 µM

Structure (SMILES): COc1cccc(CNc2ccc(S(=O)(=O)Nc3nc4ccccc4o3)cc2)c1O
solubility [10]: soluble | inhibition [17]: Active | remaining at 48 h [18]: 100% | remaining at 2 h [19]: 100% | Stability [14]: Stable | Stability [15]: Stable | inhibition [4]: inactive

Structure (SMILES): O=S(=O)(Nc1nccs1)c1ccc(NCc2ccccc2O)cc1
IC50 [3]: > 40 µM

From ChEMBL document CHEMBL3112506, “Synthesis and structure-activity relationship studies of 4-((2-hydroxy-3-methoxybenzyl)amino)benzenesulfonamide derivatives as potent and selective inhibitors of 12-lipoxygenase” (J Med Chem, 2014)
